Laboratory results as given in patent US10487056B2, “Small molecule androgen receptor inhibitors and methods of use thereof” (GEORGETOWN UNIVERSITY, priority 2015, dated 2019).

Experiments:
Type in all cases: cell-based
c-myc promoter = assay: c-myc promoter-luciferase reporter in 22Rv1 cells; conditions: 1 μM, 24 hours
Procedure: 22Rv1 cells were transfected with c-myc promoter-luciferase reporter construct and Renilla luciferase plasmids (pRL-TK-Luc) and treated with 1 μM of SH-I-125 for 24 hours. Promoter activity was determined after normalization with Renilla luciferase activity. Columns, mean of three independent experiments with quadruplicate samples; bars, SEM.

VCaP cells = assay: Caspase-Glo 3/7 activity assay, VCaP cells; conditions: 3 days
Procedure: (§1) Caspase 3/7 activity was measured using Caspase-Glo 3/7 substrates. Data represent mean of three independent experiments with quadruplicate samples; bars, SEM. ***, p value <0.001 determined by ANOVA.

[1] = tested on: VP16-Gal4DBD fusion protein; assay: VP16-Gal4DBD / UAS-luc reporter, negative control; conditions: SH-I-125 1 μM, 24 hours
Procedure: 22Rv1 cells were co-transfected with VP16 activation domain-Gal4DBD fusion protein and Gal4UAS-TATA-luciferase reporter and treated with SH-I-125 (1 μM) for 24 hours. Luciferase activity was measured and normalized with Renilla luciferase. Columns, mean of three independent experiments with quadruplicate samples; bars, SEM.
The N-terminal domain of the AR (AR NTD) is known to be its transactivation domain, essential for ligand-independent AR activation. Mahanine is able to inhibit AR activation induced by ligand-independent mechanisms such as forskolin and interleukin-6, which activate the AR NTD. […] As a negative control, a constitutively active VP16-Gal4DBD fusion protein and the UAS-luc reporter were co-expressed in […]. […] […].

VCaP-MDVR cells [2] = assay: Caspase-Glo 3/7 activity assay, VCaP-MDVR cells; conditions: SH-I-125 1 μM, 3 days
Procedure: Caspase 3/7 activity was measured using Caspase-Glo 3/7 substrates. Data represent mean of three independent experiments with quadruplicate samples; bars, SEM.
The emergence of resistance to clinical anti-androgens is an ongoing problem in the treatment of castration-resistant prostate cancer.

[3] = MTT cell viability assay, PrEC cells; conditions: human, non-tumorigenic primary prostate epithelial cells (PrEC), similar range of doses, read-out: cell viability retained
Procedure: Cells were treated in the manner indicated below for the specified period of time. MTT assay was performed as described in Amin et al., Mol. Cancer Ther., 13:341-52 (2014).
To determine the effects of SH-I-125 on prostate cancer cell growth, 22Rv1 cells were treated with SH-I-125 and cell viability was measured after a period of 3 days. […]. In comparison, non-tumorigenic primary prostate epithelial cells (PrEC) retained 80% viability in the presence of a similar range of doses of SH-I-125, showing that tumorigenic cells are more susceptible to the growth inhibitory properties of SH-I-125 compared to non-tumorigenic cells (FIG. 8B). […] Staurosporine was used as a positive control for cell death induction in live and dead assays (FIG. 9C).

22Rv1-MDVR cells = assay: Cell viability (MTT), 22Rv1-MDVR cells; conditions: MDV3100, ARN-509 10 μM, SH-I-125 range, 3 days
Procedure: (§4) Cell viability was measured using the MTT assay.

VCaP-MDVR cells [4] = assay: Cell viability (MTT), VCaP-MDVR cells; conditions: MDV3100, ARN-509 10 μM, SH-I-125 range, 3 days
Procedure: as §4

AR [5] = assay: VCaP-MDVR-ARE-luc luciferase reporter assay; conditions: VCaP-MDVR-ARE-luc cells, range of doses, 24 hours
Procedure: (§2) […]. Luciferase activity was measured and plotted as a percentage of control. Data represent the mean of three independent experiments with quadruplicate samples; bars, SEM. ***, p value <0.001 determined by ANOVA.
(§3) VCaP-MDVR and 22Rv1-MDVR stably expressing ARE-luciferase construct (VCaP-MDVR-ARE-luc and 22Rv1-MDVR-ARE-luc) were generated as described above in the Materials and Methods section. […].

[6] = target: T1, AR NTD-Gal4DBD fusion protein (Homo sapiens, UniProt P10275); assay: AR NTD-Gal4DBD / Gal4UAS-luciferase reporter in VCaP cells, forskolin-induced; conditions: forskolin 50 μM, 24 hours
T1 construct: expressed in transfected cells; host or cells: VCaP
T1 sequence (P10275 with tags, fused parts or gaps limits assumed): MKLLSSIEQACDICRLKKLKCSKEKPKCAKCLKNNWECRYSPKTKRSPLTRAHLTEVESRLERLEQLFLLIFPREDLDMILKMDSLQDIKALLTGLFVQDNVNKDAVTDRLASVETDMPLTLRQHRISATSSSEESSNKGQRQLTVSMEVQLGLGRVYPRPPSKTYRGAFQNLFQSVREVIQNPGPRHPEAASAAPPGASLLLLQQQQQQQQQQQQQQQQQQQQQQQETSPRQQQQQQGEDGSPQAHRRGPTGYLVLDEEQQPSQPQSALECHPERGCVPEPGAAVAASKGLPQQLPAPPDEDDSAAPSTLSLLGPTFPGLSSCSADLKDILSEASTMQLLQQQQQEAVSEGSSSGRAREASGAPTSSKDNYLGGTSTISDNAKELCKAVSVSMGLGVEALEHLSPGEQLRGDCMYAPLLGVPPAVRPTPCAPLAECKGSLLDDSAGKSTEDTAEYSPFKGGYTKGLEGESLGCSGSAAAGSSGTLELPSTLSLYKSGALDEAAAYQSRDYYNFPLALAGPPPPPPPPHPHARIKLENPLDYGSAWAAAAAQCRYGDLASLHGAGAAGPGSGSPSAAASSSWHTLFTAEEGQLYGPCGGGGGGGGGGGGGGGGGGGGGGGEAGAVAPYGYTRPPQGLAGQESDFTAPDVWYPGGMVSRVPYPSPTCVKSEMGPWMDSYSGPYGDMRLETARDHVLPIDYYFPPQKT
Procedure: VCaP cells were co-transfected with AR-NTD-Gal4DBD expression vector and Gal4UAS-TATA-luciferase reporter construct and optionally treated with forskolin (FSK) (50 μM) for 24 hours.
The N-terminal domain of the AR (AR NTD) is known to be its transactivation domain, essential for ligand-independent AR activation.

AR [7] = assay: 22Rv1-ARE-luc androgen-response element luciferase reporter assay; conditions: 24 hours
Procedure: VCaP and CWR22Rv1 (referred to as 22Rv1) cells were transduced with ARE-luciferase Cignal Lenti Pathway Reporter (Qiagen; Valencia, Calif.) and cultured as described above in the presence of 1 μg/mL puromycin. Following antibiotic selection, cells stably expressing ARE-luciferase were isolated, cloned and cultured to generate a stable ARE-reporter cell lines.

AR [8] = assay: Immunofluorescence staining of AR and PSA in VCaP-MDVR cells; conditions: DHT 1 nM, MDV3100 10 μM or SH-I-125 1 μM, 24 hours
Procedure: AR and PSA expression levels were assessed.
Immunofluorescence staining was performed as described in Amin et al., Mol. Cancer Ther., 13:341-52 (2014).

22Rv1 cells = assay: Caspase-Glo 3/7 activity assay, 22Rv1 cells
Procedure: 22Rv1 cells were treated with SH-I-125 (1 μM) for one, two, or three days, and caspase 3/7 activity was measured using Caspase-Glo 3/7 substrates. […] Data represent mean of three independent experiments with quadruplicate samples; bars, SEM. ***, p value <0.001 determined by ANOVA.
as §1
[…]; Madison, Wis.).
. […] Staurosporine was used as a positive control for apoptosis induction (FIG. 10B).

AR [9] = assay: 22Rv1-MDVR-ARE-luc luciferase reporter assay; conditions: 22Rv1-MDVR-ARE-luc cells, range of doses, 24 hours
Procedure: as §2, §3

SMILES: COc1ccc2c(c1)[nH]c1c(C)c(OS(=O)(=O)c3cccc4ccccc34)ccc12 [SH-I-125, 7-methoxy-1-methyl-9H-carbazol-2-yl naphthalene-1-sulfonate]
- c-myc promoter-luciferase activity (c-myc promoter): unaffected
- caspase 3/7 activity (VCaP cells): induced caspase activity
- VP16-Gal4DBD luciferase activity [1]: did not affect luciferase activity
- caspase 3/7 activation (VCaP-MDVR cells [2]): inducing caspase activation
- viability at 3 days [3]: 80%
- cell growth / viability (22Rv1-MDVR cells): effective in preventing the growth
- cell growth / viability (VCaP-MDVR cells [4]): effective in preventing the growth
- inhibitory effect on AR activity (luciferase) (AR [5]): retained its inhibitory effect
- forskolin-induced AR activation (AR NTD-Gal4DBD luciferase) [6]: significantly inhibited forskolin-induced AR activation
- potency relative to mahanine on AR signaling (ARE-luc) (AR [7]): more potent than mahanine
- ARE-luciferase activity (AR [7]; range of doses): almost completely abolishing ARE-luciferase activity
- AR expression / nuclear localization (AR [8]): decreased AR nuclear localization
- PSA expression (AR [8]): decreased AR nuclear localization and PSA expression
- caspase 3/7 activity (22Rv1 cells; 3 days): induced caspase activity
- caspase-3 and -7 activities, time-course (22Rv1 cells; SH-I-125 1 μM, after three days treatment): significantly induced
- luciferase activity (AR activity) (AR [9]): retained its inhibitory effect
